These results are taken from ChEMBL document CHEMBL1132087, “New N-substituted 7-aminocephalosporanic acid derivatives as potential agents against Streptococcus pneumoniae. Synthesis and in vitro activity” (1999).

What all share (type): functional
For experiment [1], the system named is Streptococcus pyogenes. As to the kind of experiment: In vitro antibacterial activity against the gram-positive bacteria, erythromycin resistant Streptococcus pyogenes.
The test system of experiment [2] is Streptococcus pneumoniae. As to the kind of experiment: In vitro antibacterial activity against the gram-positive bacteria, penicillin resistant Streptococcus pneumoniae (4636).
Experiment [3] relates to Streptococcus pneumoniae. The experiment is described as follows: In vitro antibacterial activity against the gram-positive bacteria, penicillin sensitive Streptococcus pneumoniae (3273).
Experiment [4] has as its system Streptococcus pneumoniae. The experiment is described as follows: In vitro antibacterial activity against the gram-positive bacteria, penicillin resistant Streptococcus pneumoniae (4635).
Experiment [5] relates to Staphylococcus aureus. The experiment is described as follows: In vitro antibacterial activity against the gram-positive bacteria, penicillin sensitive Staphylococcus aureus (3849).
The test system of experiment [6] is Staphylococcus aureus. As to the kind of experiment: In vitro antibacterial activity against the gram-positive bacteria, penicillin resistant Staphylococcus aureus (2619).
Experiment [7] has as its system Staphylococcus aureus. The experiment is described as follows: In vitro antibacterial activity against the gram-positive bacteria, penicillin resistant Staphylococcus aureus (2672).
Experiment [8] relates to Streptococcus pneumoniae. As to the kind of experiment: In vitro antibacterial activity against the gram-positive bacteria, penicillin sensitive Streptococcus pneumoniae (3512).
Experiment [9] deals with Staphylococcus aureus. The experiment is described as follows: In vitro antibacterial activity against the gram-positive bacteria, penicillin sensitive Staphylococcus aureus (663E).
Experiment [10] has as its system Streptococcus pneumoniae. As to the kind of experiment: In vitro antibacterial activity against the gram-positive bacteria, penicillin sensitive Streptococcus pneumoniae (3272).
Experiment [11] relates to Streptococcus pneumoniae. As to the kind of experiment: In vitro antibacterial activity against the gram-positive bacteria, penicillin resistant Streptococcus pneumoniae (4630).
Experiment [12] concerns Staphylococcus aureus. As to the kind of experiment: In vitro antibacterial activity against the gram-positive bacteria, penicillin sensitive Staphylococcus aureus (3072).
The subject of experiment [13] is Staphylococcus aureus. The experiment is described as follows: In vitro antibacterial activity against the gram-positive bacteria, penicillin resistant Staphylococcus aureus (853).
Experiment [14] concerns Streptococcus pneumoniae. The experiment is described as follows: In vitro antibacterial activity against the gram-positive bacteria, penicillin resistant Streptococcus pneumoniae (4629).

Values after ≈ are worked out from the molar mass of the structure shown.

What is called MIC is the least concentration at which growth counts as inhibited. The low end stands for greater potency, the high end for weaker potency. On to `CC(=O)OCC1=C(C(=O)O)N2C(=O)[C@@H](NC(=O)CN(OCc3ccccc3Cl)C(=O)Nc3ccccc3)C2SC1` (some centres not stated), for which the MIC in experiment [1] stood at 0.12 µg/mL (≈ 0.204 µM); in experiment [2], 8 µg/mL (≈ 13.6 µM); in [3] it was 0.25 µg/mL (≈ 0.424 µM); in [4], 4 µg/mL (≈ 6.79 µM); in experiment [5] it was 0.5 µg/mL (≈ 0.849 µM); in experiment [6], 1 µg/mL (≈ 1.7 µM). For the same molecule, the MIC stood at 2 µg/mL (≈ 3.4 µM) in experiment [7]; 0.12 µg/mL (≈ 0.204 µM) in experiment [8]; 0.5 µg/mL (≈ 0.849 µM) in experiment [9]; 0.25 µg/mL (≈ 0.424 µM) in experiment [10]; 8 µg/mL (≈ 13.6 µM) in experiment [11]; 0.5 µg/mL (≈ 0.849 µM) in experiment [12]. Moreover, the MIC in experiment [13] worked out at 2 µg/mL (≈ 3.4 µM); in experiment [14], 8 µg/mL (≈ 13.6 µM).
In the case of `CC(=O)OCC1=C(C(=O)O)N2C(=O)[C@@H](NC(=O)CN(OCc3ccc(Cl)cc3)C(=O)c3ccccc3)C2SC1` (some centres not stated), the minimum inhibitory concentration (MIC) in experiment [1] came to 0.12 µg/mL (≈ 0.209 µM); in experiment [2], 16 µg/mL (≈ 27.9 µM); in experiment [3] it was 0.12 µg/mL (≈ 0.209 µM); in experiment [4], 8 µg/mL (≈ 13.9 µM); in experiment [5], 1 µg/mL (≈ 1.74 µM); in experiment [6], 2 µg/mL (≈ 3.48 µM). The MIC in experiment [7] was 8 µg/mL (≈ 13.9 µM); in experiment [8], 0.12 µg/mL (≈ 0.209 µM); in experiment [9], 0.5 µg/mL (≈ 0.871 µM); in experiment [10] it was 0.12 µg/mL (≈ 0.209 µM); in [11] it was 8 µg/mL (≈ 13.9 µM); in experiment [12], 0.5 µg/mL (≈ 0.871 µM). Also, the minimal inhibitory concentration (MIC) in [13] came to 2 µg/mL (≈ 3.48 µM); in [14] it was 8 µg/mL (≈ 13.9 µM).
Consider `CC(=O)OCC1=C(C(=O)O)N2C(=O)[C@@H](NC(=O)CN(OCc3ccccc3Cl)C(=O)NCc3ccccc3)C2SC1` (some centres not stated), for which the MIC stood at 0.25 µg/mL (≈ 0.415 µM) in experiment [1]; 64 µg/mL (≈ 106 µM) in [2]; 0.5 µg/mL (≈ 0.829 µM) in experiment [3]; 4 µg/mL (≈ 6.63 µM) in experiment [4]; 0.5 µg/mL (≈ 0.829 µM) in [5]; 1 µg/mL (≈ 1.66 µM) in experiment [6]. Moreover, the minimum inhibitory concentration (MIC) in [7] turned out to be 4 µg/mL (≈ 6.63 µM); in experiment [8] it was 0.25 µg/mL (≈ 0.415 µM); in [9] it was 0.5 µg/mL (≈ 0.829 µM); in [10], 0.5 µg/mL (≈ 0.829 µM); in experiment [11] it was 16 µg/mL (≈ 26.5 µM); in experiment [12] it was 1 µg/mL (≈ 1.66 µM). In addition, the MIC in [13] amounted to 1 µg/mL (≈ 1.66 µM); in experiment [14], 16 µg/mL (≈ 26.5 µM).
Consider `CC(=O)OCC1=C(C(=O)O)N2C(=O)[C@@H](NC(=O)CN(OCc3ccc(Cl)cc3)C(=O)Nc3ccccc3)C2SC1` (some centres not stated), for which the MIC in experiment [1] was found to be 0.06 µg/mL (≈ 0.102 µM); in [2], 16 µg/mL (≈ 27.2 µM); in experiment [3] it was 0.25 µg/mL (≈ 0.424 µM); in experiment [4], 4 µg/mL (≈ 6.79 µM); in experiment [5], 0.5 µg/mL (≈ 0.849 µM); in experiment [6] it was 1 µg/mL (≈ 1.7 µM). Further, the MIC in experiment [7] was 4 µg/mL (≈ 6.79 µM); in experiment [8], 0.06 µg/mL (≈ 0.102 µM); in experiment [9], 0.5 µg/mL (≈ 0.849 µM); in [10], 0.12 µg/mL (≈ 0.204 µM); in experiment [11], 4 µg/mL (≈ 6.79 µM); in experiment [12], 0.5 µg/mL (≈ 0.849 µM). For the same molecule, the minimum inhibitory concentration (MIC) in experiment [13] was found to be 1 µg/mL (≈ 1.7 µM); in [14], 8 µg/mL (≈ 13.6 µM).
For the molecule `CC(=O)OCC1=C(C(=O)O)N2C(=O)[C@@H](NC(=O)CN(OCc3cccc(Cl)c3)C(=O)NCc3ccccc3)C2SC1` (some centres not stated), the minimal inhibitory concentration (MIC) worked out at 0.25 µg/mL (≈ 0.415 µM) in [1]; 32 µg/mL (≈ 53.1 µM) in experiment [2]; 0.5 µg/mL (≈ 0.829 µM) in experiment [3]; 4 µg/mL (≈ 6.63 µM) in experiment [4]; 0.5 µg/mL (≈ 0.829 µM) in experiment [5]; 2 µg/mL (≈ 3.32 µM) in [6]. Moreover, the MIC stood at 2 µg/mL (≈ 3.32 µM) in [7]; 0.25 µg/mL (≈ 0.415 µM) in experiment [8]; 1 µg/mL (≈ 1.66 µM) in [9]; 0.25 µg/mL (≈ 0.415 µM) in experiment [10]; 8 µg/mL (≈ 13.3 µM) in experiment [11]; 1 µg/mL (≈ 1.66 µM) in experiment [12]. The results for the minimum inhibitory concentration (MIC) in [13] and in experiment [14] were 1 µg/mL (≈ 1.66 µM) and 8 µg/mL (≈ 13.3 µM), respectively.
Turning to `CC(=O)OCC1=C(C(=O)O)N2C(=O)[C@@H](NC(=O)CN(OCc3ccc(Cl)cc3)C(=O)NCc3ccccc3)C2SC1` (some centres not stated), the minimum inhibitory concentration (MIC) in experiment [1] stood at 0.12 µg/mL (≈ 0.199 µM); in experiment [2], 32 µg/mL (≈ 53.1 µM); in [3], 0.5 µg/mL (≈ 0.829 µM); in experiment [4], 4 µg/mL (≈ 6.63 µM); in [5] it was 0.5 µg/mL (≈ 0.829 µM); in experiment [6], 1 µg/mL (≈ 1.66 µM). The MIC in experiment [7] turned out to be 2 µg/mL (≈ 3.32 µM); in [8], 0.25 µg/mL (≈ 0.415 µM); in experiment [9], 0.5 µg/mL (≈ 0.829 µM); in experiment [10], 0.25 µg/mL (≈ 0.415 µM); in experiment [11] it was 8 µg/mL (≈ 13.3 µM); in [12], 1 µg/mL (≈ 1.66 µM). Further, the minimal inhibitory concentration (MIC) worked out at 1 µg/mL (≈ 1.66 µM) in experiment [13] and 8 µg/mL (≈ 13.3 µM) in experiment [14].
Regarding `CC1(C)S[C@@H]2[C@H](NC(=O)Cc3ccccc3)C(=O)N2[C@H]1C(=O)O` [PENICILLIN G], the MIC is 8 µg/mL (≈ 23.9 µM) in experiment [2]; 0.5 µg/mL (≈ 1.5 µM) in experiment [3]; 8 µg/mL (≈ 23.9 µM) in [4]; less than 0.5 µg/mL in experiment [5]; 64 µg/mL (≈ 191 µM) in experiment [6]; 64 µg/mL (≈ 191 µM) in [7]. For the same molecule, the MIC in [8] was less than 0.5 µg/mL; in experiment [9], less than 0.5 µg/mL; in experiment [10], less than 0.5 µg/mL; in experiment [11], 4 µg/mL (≈ 12 µM); in experiment [12] it was less than 0.5 µg/mL; in [13], 64 µg/mL (≈ 191 µM). This molecule registered a minimum inhibitory concentration (MIC) in experiment [14] of 4 µg/mL (≈ 12 µM).
